According to publication PMC6598159 (ACS Central Science, 2019):

Experiment: CYP reaction phenotyping in HLM with selective CYP inhibitors
Conditions: ketoconazole 1 or 10 μM; ticlopidine 20 μM; mitragynine 2 μM

CC(=O)N1CCN(c2ccc(OCC3COC(Cn4ccnc4)(c4ccc(Cl)cc4Cl)O3)cc2)CC1 (centres unmarked) [ketoconazole]
effect on decomposition of mitragynine in HLM: robustly inhibited | effect on formation of 7-OH from mitragynine in HLM: robustly inhibited
